From patent publication US20210161997A1, “TREATING DISEASES VIA TARGETED MODULATION OF GENE SIGNALING NETWORKS” (Camp4 Therapeutics Corporation, priority 2018, published 2021)

What was measured:
[1] = test system: ANGPTL3; experiment: RNA-seq of ANGPTL3 expression in compound-treated primary human hepatocytes; format: cell-based; conditions: primary human hepatocytes (Table 12)
Procedure, shortened: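 Cryopreserved primary human hepatocytes from three donors, plated at 375,000 cells/well, switched to complete or modified maintenance medium, then dosed with compound (stocks at 1000× final) for about 18 h. Poly(A) mRNA was sequenced directionally, mapped to GRCh38 with STAR, and gene-level abundance (counts, FPKM) estimated with RSEM against GENCODE 24.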

[2] = test system: LDLR; experiment: RNA-seq of LDLR expression in compound-treated primary human hepatocytes; format: cell-based
Experimental: (§1) Human hepatocytes were obtained from two donors from Massachusetts General Hospital, namely MGH54 and MGH63, and one donor from Lonza, namely HUM4111B. Cryopreserved hepatocytes were cultured in plating media for 16 hours, transferred to maintenance media for 4 hours. Cultured on serum-free media for 2 hours, then a compound was added. The hepatocytes were maintained on the serum-free media for 16 hours prior to gene expression analysis. Primary human hepatocytes were stored in the vapor phase of a liquid nitrogen freezer (about −130° C.).
(§2) Human hepatocytes cultured as described above were plated in 24-well format, adding 375,000 cells per well in a volume of 500 ul plating medium. Four hours before treatment, cells were washed with PBS and the medium was changed to either: fresh maintenance medium (complete) or modified maintenance medium.
(§3) Compound stocks were prepared at 1000× final concentration and added in a 2-step dilution to the medium to reduce risk of a compound precipitating out of solution when added to the cells, and to ensure reasonable pipetting volumes. One at a time, each compound was first diluted 10-fold in warm (about 37° C.) modified maintenance medium (initial dilution=ID), mixed by vortexing, and the ID was diluted 100-fold into the cell culture (e.g. 5.1 ul into 1 well of a 24-well plate containing 0.5 mL medium). The plate was mixed by carefully swirling and after all wells were treated and returned to the incubator overnight. If desired, separate plates/wells were treated with vehicle-only controls and/or positive controls. If using multi-well plates, controls were included on each plate. After about 18 hours, cells were harvested for further analysis, e.g., ChIP-seq, RNA-seq, ATAC-seq, etc.
(§4) This protocol is a modified version of the following protocols: MagMAX mirVana Total RNA Isolation Kit User Guide (Applied Biosystems #MAN0011131 Rev B.0), NEBNext Poly(A) mRNA Magnetic Isolation Module (E7490), and NEBNext Ultra Directional RNA Library Prep Kit for Illumina (E7420) (New England Biosystems #E74901).
(§5) The MagMAX mirVana kit instructions (the section titled “Isolate RNA from cells” on pages 14-17) were used for isolation of total RNA from cells in culture. Two hundred μl of Lysis Binding Mix was used per well of the multiwell plate containing adherent cells (usually a 24-well plate).
(§6) For mRNA isolation and library prep, the NEBNext Poly(A) mRNA Magnetic Isolation Module and Directional Prep kit was used. RNA isolated from cells above was quantified, and prepared in […] of each sample in 50 μl of nuclease-free water. This protocol may be run in microfuge tubes or in a 96-well plate.
(§7) All pass filter reads from each sample were mapped against the human genome (assembly GRCh38/GCA_000001405.15 “no alt” analysis set merged with hs38d1/GCA_000786075.2) using two pass mapping via STAR version 2.5.3a (alignment parameters alignIntronMin=20; alignIntronMax=1000000; outFilterMismatchNmax=999; outFilterMismatchNoverLmax=0.05; outFilterType=BySJout; outFilterMultimapNmax=20; alignSJoverhangMin=8; alignSJDBoverhangMin=1; alignMatesGapMax=1000000) (Dobin et al., Bioinformatics (2012) 29(1):15-21). Genomic alignments were converted to transcriptome alignments based on reference transcript annotations from the Human GENCODE Gene Set release 24 (Harrow et al., Genome Res. (2012) 22(9): 1760-1774). Using unique and multimapped transcriptomic alignments, gene-level abundance estimates were computed using RSEM version 1.3.0 (Li and Dewey, BMC Bioinformatics (2011) 12:323) in a strand-aware manner, and including confidence interval sampling calculations, to arrive at posterior mean estimates (PME) of abundances (counts and normalized FPKM—fragments per kilobase of exon per million mapped fragments) from the underlying Bayesian model. Standard QC were applied (read integrity, mapping statistics, library complexity, fragment bias) to remove unsatisfactory samples.

[3] = test system: PCSK9; experiment: RNA-seq of PCSK9 expression in compound-treated primary human hepatocytes; format: cell-based
Experimental: as §1, §2, §3, §4, §5, §6, §7

[4] = test system: SERPINC1; experiment: RNA-seq of SERPINC1 expression in compound-treated primary human hepatocytes; format: cell-based; conditions: significance FPKM ≥1, log 2(fold change) ≥0.5, q-value ≤0.05
Experimental: Human hepatocytes were obtained from two donors from Massachusetts General Hospital, namely MGH54 and MGH63, and one donor from Lonza, namely HUM4111B. Cryopreserved hepatocytes were cultured in plating media for 16 hours, transferred to maintenance media for 4 hours. Cultured on serum-free media for 2 hours, then a compound was added. The hepatocytes were maintained on the serum-free media for 16 hours prior to gene expression analysis. Primary human hepatocytes were stored in the vapor phase of a liquid nitrogen freezer (about -130° C.). Human hepatocytes cultured as described above were plated in 24-well format, adding 375,000 cells per well in a volume of 500 ul plating medium. Four hours before treatment, cells were washed with PBS and the medium was changed to either: fresh maintenance medium (complete) or modified maintenance medium. Compound stocks were prepared at 1000× final concentration and added in a 2-step dilution to the medium to reduce risk of a compound precipitating out of solution when added to the cells, and to ensure reasonable pipetting volumes. […] The plate was mixed by carefully swirling and after all wells were treated and returned to the incubator overnight. If desired, separate plates/wells were treated with vehicle-only controls and/or positive controls. If using multi-well plates, controls were included on each plate. After about 18 hours, cells were harvested for further analysis, e.g., ChIP-seq, RNA-seq, ATAC-seq, etc. This protocol is a modified version of the following protocols: MagMAX mirVana Total RNA Isolation Kit User Guide (Applied Biosystems #MAN0011131 Rev B.0), NEBNext Poly(A) mRNA Magnetic Isolation Module ([…]), and NEBNext Ultra Directional RNA Library Prep Kit for Illumina ([…]) (New England Biosystems #E74901). […] Two hundred μl of Lysis Binding Mix was used per well of the multiwell plate containing adherent cells (usually a 24-well plate). For mRNA isolation and library prep, the NEBNext Poly(A) mRNA Magnetic Isolation Module and Directional Prep kit was used. RNA isolated from cells above was quantified, and prepared in […] of each sample in 50 μl of nuclease-free water. This protocol may be run in microfuge tubes or in a 96-well plate. […] Genomic alignments were converted to transcriptome alignments based on reference transcript annotations from the Human GENCODE Gene Set release 24 (Harrow et al., Genome Res. […] Using unique and multimapped transcriptomic alignments, gene-level abundance estimates were computed using RSEM version 1.3.0 (Li and Dewey, BMC Bioinformatics (2011) 12:323) in a strand-aware manner, and including confidence interval sampling calculations, to arrive at posterior mean estimates (PME) of abundances (counts and normalized FPKM-fragments per kilobase of exon per million mapped fragments) from the underlying Bayesian model. Standard QC were applied (read integrity, mapping statistics, library complexity, fragment bias) to remove unsatisfactory samples. Differential gene expression was computed using the negative binomial model implemented by DESeq2 version 1.16.1 (Love et al., Genome Biol. (2014) 15(12):550). […] RNA-seq signals were also normalized by read depth and visualized using the UCSC browser. To identify small molecules that modulate target gene expression, primary human hepatocytes were prepared as a monoculture, and at least one small molecule compound was applied to the cells. RNA-seq was performed to determine the effects of the compounds on the expression of the target genes in hepatocytes. Fold change was calculated by dividing the level of expression in the cell system that had been perturbed by the level of expression in an unperturbed system.

[5] = test system: SLC37A4; experiment: RNA-seq of SLC37A4 expression in compound-treated primary human hepatocytes; format: cell-based
Experimental: as §1, §2, §3, §4, §5, §6, §7

[6] = test system: UGT1A1; experiment: RNA-seq of UGT1A1 expression in compound-treated primary human hepatocytes; format: cell-based
Procedure, shortened: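 Cryopreserved primary human hepatocytes from three donors were plated in 24-well format, then treated with compound diluted from 1000× stocks in serum-free maintenance medium for about 16–18 h. Poly(A) RNA-seq log2 fold change was computed against vehicle/pan-experiment controls. Significance required FPKM ≥1, log2FC ≥0.5 and q ≤0.05.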

[7] = test system: SERPINC1 mRNA; experiment: Quantitative PCR of SERPINC1 mRNA in primary human hepatocytes (Lonza Hu4282) treated with compounds; format: cell-based; conditions: quantitative PCR; for SERPINC1 mRNA, H8290, 1 uM / SERPINC1 mRNA, H8290, 10 uM: hepatocytes H8290
[8] = test system: SERPINC1 mRNA; experiment: Quantitative PCR of SERPINC1 mRNA in mouse hepatocytes treated with compounds; format: cell-based
Experimental: Samples were amplified using Taqman probes from ThermoFisher.
In some examples, RQ Min and RQ Max values are also reported. RQ Min and RQ Max are the minimum and maximum relative levels of gene expression in the test samples, respectively. They were calculated using the confidence level set in the analysis settings and the confidence level was set to one standard deviation (SD). These values were calculated using standard deviation as follows: […].
Compounds were tested in hepatocytes for upregulation of SERPINC1 mRNA for identification of potential treatments of SERPINC1/AT III deficiency.

[9] = test system: SERPINC1 mRNA; experiment: RNA seq of SERPINC1 in MGH54 cells treated with select compounds; format: cell-based, human; conditions: compound 10 uM
[10] = test system: JAG1; experiment: RNA-seq of JAG1 expression in compound-treated primary human hepatocytes; format: cell-based
Procedure, shortened: (§8)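 Cryopreserved primary human hepatocytes from three donors, switched to serum-free medium 2 h before compound addition, were harvested about 18 h after treatment. Poly(A) mRNA was sequenced and aligned to GENCODE release 24, with DESeq2 negative binomial differential expression. Fold change is the treated level over the unperturbed level.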

[11] = test system: NOTCH2; experiment: RNA-seq of NOTCH2 expression in compound-treated primary human hepatocytes; format: cell-based; conditions: primary human hepatocytes
Procedure, shortened: as §8

Row | SMILES | ANGPTL3 Fold Change (Log2) [1] [Log2] | LDLR Fold Change (Log2) [2] [Log2] | PCSK9 Fold Change (Log2) [3] [Log2] | SERPINC1 Fold Change (Log2) [4] [Log2] | other results
1 | C=CC(=O)Nc1cccc(Nc2nc(Nc3ccc(N4CCN(C(C)=O)CC4)cc3OC)ncc2C(F)(F)F)c1 [CO-1686 (Rociletinib), Rociletinib] | −0.67 | 0.51 | 0 |  | 
2 | COCCOc1ccc2c(c1)ncn2-c1ccc2cccc(N3CCC(N)CC3)c2n1 [CP-673451] |  |  |  | 2.53 | SLC37A4 Fold Change (Log2) [5]: 1.17 Log2; UGT1A1 Fold Change (Log2) [6]: 1.82 Log2
3 | CS[C@H]1SC[C@H]2C(=O)N(C)[C@@H](C(C)C)C(=O)OC[C@@H](NC(=O)c3cnc4ccccc4n3)C(=O)N[C@@H](C)C(=O)N(C)[C@@H]1C(=O)N(C)[C@@H](C(C)C)C(=O)OC[C@@H](NC(=O)c1cnc3ccccc3n1)C(=O)N[C@@H](C)C(=O)N2C [Echinomycin] |  |  |  | 2.29 | SLC37A4 Fold Change (Log2) [5]: 1.59 Log2; UGT1A1 Fold Change (Log2) [6]: 1.10 Log2
4 | COc1cc2c(Oc3ccc(NC(=O)C4(C(=O)Nc5ccc(F)cc5)CC4)cc3F)ccnc2cc1OCCCN1CCOCC1 [Foretinib] |  |  |  |  | SERPINC1 mRNA, H8290, 1 uM ([7]; compound 1 uM): 1; SERPINC1 mRNA, H8290, 10 uM ([7]; compound 10 uM): 2.2; SERPINC1 mRNA, Lonza Hu4282, 1 uM ([7]; primary human hepatocytes Lonza Hu4282, compound 1 uM): 1.04; SERPINC1 mRNA, Lonza Hu4282, 10 uM ([7]; primary human hepatocytes Lonza Hu4282, compound 10 uM): 1.36; SERPINC1 mRNA, Mouse Heps, 1 uM ([8]; compound 1 uM): 1.05; SERPINC1 mRNA, Mouse Heps, 10 uM ([8]; compound 10 uM): 0.93; SERPINC1, MGH54 (RNA seq), 10 uM [9]: 0
5 | COc1cccc2c1C(=O)c1c(O)c3c(c(O)c1C2=O)C[C@@](O)(/C(CO)=N/NC(=O)CCCCCN1C(=O)C=CC1=O)C[C@@H]3O[C@H]1C[C@H](N)[C@H](O)[C@H](C)O1 [INNO-206 (aldoxorubicin), aldoxorubicin] |  |  |  | 1.00 | JAG1 Fold Change (Log2) ([10]; primary human hepatocytes): 0.84 Log2; Significant modulation of JAG1 (in words) ([10]; summary of Table 6): significantly modulate only JAG1; NOTCH2 Fold Change (Log2) [11]: 0 Log2
6 | O=c1cc(N2CCOCC2)oc2c(-c3ccccc3)cccc12 [LY294002] | 0 | 0.48 | −0.51 |  | UGT1A1 Fold Change (Log2) [6]: 1.36 Log2
7 | NS(=O)(=O)C#Cc1ccccc1 [Pifithrin-u, Pifithrin-μ] | −0.46 | 0.60 | −0.54 | 0.79 | 
8 | COCCOc1ccc(N2CCN(CCn3ncc4c3nc(N)n3nc(-c5ccco5)nc43)CC2)cc1 [Preladenant] | −0.73 | 1.07 | 0 |  | 
9 | CN1CCC(CNc2ccc3ncc(-c4cccc(OC(F)(F)F)c4)n3n2)CC1 [SGI-1776] | −0.52 | 0.48 | 0 |  | 
10 | CO[C@H]1C[C@@H]2CC[C@@H](C)[C@@](O)(O2)C(=O)C(=O)N2CCCC[C@H]2C(=O)O[C@H]([C@H](C)C[C@@H]2CC[C@@H](OC(=O)C(C)(CO)CO)[C@H](OC)C2)CC(=O)[C@H](C)/C=C(\C)[C@@H](O)[C@@H](OC)C(=O)[C@H](C)C[C@H](C)/C=C/C=C/C=C/1C [Temsirolimus] |  |  |  |  | SERPINC1 mRNA, H8290, 1 uM ([7]; compound 1 uM): 1.2; SERPINC1 mRNA, H8290, 10 uM ([7]; compound 10 uM): 1.6; SERPINC1, MGH54 (RNA seq), 10 uM [9]: 0
11 | CNC(=O)Nc1ccc(-c2nc(N3CC4CCC(C3)O4)c3cnn(C4CCC5(CC4)OCCO5)c3n2)cc1 [WYE-125132 (WYE-132)] | −0.42 | 1.46 | −0.91 |  | 
